In brackets after ≈: the same amount, converted by molar mass. Several values for one entry are separate records, joined by “and”; a condition that tells them apart may be missing. Identical values can stand only once. Like-named read-outs stand apart in the source and are kept apart here.

These results are taken from patent US20060099712A1, “Correlation of anti-cancer activity of dyes with redox potentials” (Eastman Kodak Company, priority 2004, published 2006).

Assay [1] concerns CX-1 Human Colon Carcinoma. Nature of the assay: Clonogenic dye screening assay, CX-1 cells (IC50). Type of assay: cell-based. On the set-up: CX: unit not given here. As to conditions: for Selectivity: IC50 CV-1 / IC50 cell line 2 (CX-1); for IC50: Homo sapiens; for CX (IC50 in the CX-1 cell line): 3 hrs treatment, unit from method b117-118; for CV/CX: selectivity ratio of IC50 values; for CV/CX (selectivity, kill ratio): ratio of IC50 in normal CV-1 line to IC50 in carcinoma CX-1 line. Summed up:
(§1)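 Cells seeded 16-30 h ahead (2000 CX-1 or 1000 CV-1 per well), exposed to serially diluted dyes for 3 h at 37 °C, rinsed three times, then grown into colonies. Eight-point curves spanned 0.32-0.0015 μg/mL (CX-1) and 3.2-0.025 μg/mL (CV-1). IC50 is the concentration killing 50% of cells.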

For assay [2], the system named is CV-1 Normal Monkey Kidney Epithelial. Nature of the assay: Clonogenic dye screening assay, CV-1 cells (IC50). Type of assay: cell-based, African green monkey. The following applies: for IC50 (concentration at which 50% of the cells of the culture are killed): cell line 1, CV-1 normal control; for IC50: Primates. In a few lines: as §1
Where [3] appears, read: CX-1, cell line 2, CX-1, unit from method, read-out: IC50 (concentration at which 50% of the cells of the culture are killed).
Setting [4] is: CV-1, cell line 1, CV-1 normal control, unit from method, read-out: IC50 (concentration at which 50% of the cells of the culture are killed).
The mark [5] stands for this setting: CX-1, Table XIX, CX-1 cells, read-out: CX.
The mark [6] stands for this setting: CV-1, Table XIX, CV-1 cells, read-out: CV.

Consider `CCN1C(=CC=Cc2sc3cc4ccccc4cc3[n+]2CC)Sc2cc3ccccc3cc21` [AC-2], for which the Selectivity in assay [1] was above 60. Also, the “IC50 (concentration at which 50% of the cells of the culture are killed)” value was “<.005 µg/mL” in assay [1] (cell line 2, CX-1, unit from method) and 0.30 µg/mL in assay [2] (unit from method).
As to `COc1cccc2c1C(=O)c1c(O)c3c(c(O)c1C2=O)C[C@@](O)(C(=O)CO)C[C@@H]3O[C@H]1C[C@H](N)[C@H](O)[C@H](C)O1` [Adriamycin, reference compound], the IC50 in assay [1] (setting [3]) was 0.55 µg/mL (≈ 1.01 µM); in assay [2] (setting [4]), 0.8 µg/mL (≈ 1.47 µM). In assay [1], this compound returned a Selectivity of 1.5.
Regarding `CCN1/C(=C/C=C/c2sc3ccccc3[n+]2CC)Sc2ccccc21.[I-]` [Dye D-101], the “CX (IC50 in the CX-1 cell line)” value in assay [1] (colonies after 7-10 days) was below 0.005 µg/mL. Further, the Selectivity in assay [1] is given as 100. In addition, in assay [1] (Table XIX, CX-1 cells), the CX was 0.004. For the same compound, the CV/CX is 100.000 and 75.000 in assay [1] (Table XIX); 100.0 in assay [1] (Table XV). Further, in assay [1], the “CV/CX (selectivity, kill ratio)” value is 100 and >100.0. Also, the “IC50 (concentration at which 50% of the cells of the culture are killed)” value in assay [2] (unit from method) is 0.5 µg/mL and 0.50 µg/mL.
As for `CCN1/C(=C\C=C\C2=[N+](CC)c3ccccc3C2(C)C)C(C)(C)c2ccccc21` [Dye D-103], the IC50 in assay [1] (CX-1, read-out: CX) worked out at 0.01 µg/mL; in assay [1] (CX-1, read-out: CX (IC50 in the CX-1 cell line)) it was 0.01 µg/mL; in assay [2] (CV-1, read-out: CV), 5 µg/mL; in assay [2] (CV-1, read-out: CV (IC50 in the CV-1 cell line)), 5 µg/mL. In addition, the values for the CV/CX in assay [1] (Table XIX) and in assay [1] (Table XV) were 500.000 and 500.0, respectively. Also, the “CV/CX (selectivity, kill ratio)” value in assay [1] is listed as 500.
For the compound `CCN1/C(=C/C=C/c2sc3cc4ccccc4cc3[n+]2CC)Sc2cc3ccccc3cc21` [Dye D-109], in assay [1] (colonies after 7-10 days), the “CX (IC50 in the CX-1 cell line)” value is below 0.005 µg/mL. For the same compound, the figures for the IC50 in assay [1] (setting [5]) and in assay [2] (setting [6]) were 0.004 µg/mL and 0.3 µg/mL, respectively. The CV/CX in assay [1] (Table XIX) is on record as 75.000. Besides, the “CV/CX (selectivity, kill ratio)” value in assay [1] is 60 and >60.0.
As for `CCN1C(=CC=Cc2sc3cc4ccccc4nc3[n+]2CC)Sc2cc3ccccc3nc21` [Dye D-150], the IC50 in assay [1] (CX-1, 3 hrs treatment, colonies after 7-10 days, unit from method, read-out: CX (IC50 in the CX-1 cell line)) was found to be 0.03 µg/mL; in assay [1] (setting [5]), 0.03 µg/mL; in assay [1] (setting [3]), 0.03 µg/mL; in assay [2] (CV-1, 3 hrs treatment, colonies after 7-10 days, unit from method, read-out: CV (IC50 in the CV-1 cell line)), 3 µg/mL; in assay [2] (setting [6]) it was 3 µg/mL; in assay [2] (setting [4]), 3 µg/mL. For the same compound, the Selectivity in assay [1] came to 100. In assay [1] (Table XIX), the CV/CX was determined as 100.000. In assay [1], the “CV/CX (selectivity, kill ratio)” value is 100.
`CCN1/C(=C/C=C/c2sc3cc4ccccc4cc3[n+]2CC)Sc2cc3ccccc3cc21` [Dye D-160]: the “CX (IC50 in the CX-1 cell line)” value in assay [1] (colonies after 7-10 days) was found to be 0.05 µg/mL. The IC50 was below 0.005 µg/mL in assay [1] (setting [3]) and 0.3 µg/mL in assay [2] (setting [4]). In assay [1] (Table XIX, CX-1 cells), this compound gave a CX of 0.004. Besides, the CV/CX in assay [1] (Table XIX) is on record as 75.000. The “CV/CX (selectivity, kill ratio)” value in assay [1] was found to be 100.
